Assay results reported in ChEMBL document CHEMBL4368932 (Bioorg Med Chem, 2019).
Blank lines part the entries; values can stand above or below the compound they belong to. Active and inactive are the calls of the source. The rule behind the calls is not given here.

Legend:
[1] = biological target: T1, Phosphatidylinositol 4,5-bisphosphate 3-kinase catalytic subunit delta isoform (Homo sapiens, UniProt O00329); assay: Inhibition of recombinant human PI3Kdelta using PIP2 as substrate after 35 to 40 mins by HTRF assay
T1 sequence (O00329 whole entry): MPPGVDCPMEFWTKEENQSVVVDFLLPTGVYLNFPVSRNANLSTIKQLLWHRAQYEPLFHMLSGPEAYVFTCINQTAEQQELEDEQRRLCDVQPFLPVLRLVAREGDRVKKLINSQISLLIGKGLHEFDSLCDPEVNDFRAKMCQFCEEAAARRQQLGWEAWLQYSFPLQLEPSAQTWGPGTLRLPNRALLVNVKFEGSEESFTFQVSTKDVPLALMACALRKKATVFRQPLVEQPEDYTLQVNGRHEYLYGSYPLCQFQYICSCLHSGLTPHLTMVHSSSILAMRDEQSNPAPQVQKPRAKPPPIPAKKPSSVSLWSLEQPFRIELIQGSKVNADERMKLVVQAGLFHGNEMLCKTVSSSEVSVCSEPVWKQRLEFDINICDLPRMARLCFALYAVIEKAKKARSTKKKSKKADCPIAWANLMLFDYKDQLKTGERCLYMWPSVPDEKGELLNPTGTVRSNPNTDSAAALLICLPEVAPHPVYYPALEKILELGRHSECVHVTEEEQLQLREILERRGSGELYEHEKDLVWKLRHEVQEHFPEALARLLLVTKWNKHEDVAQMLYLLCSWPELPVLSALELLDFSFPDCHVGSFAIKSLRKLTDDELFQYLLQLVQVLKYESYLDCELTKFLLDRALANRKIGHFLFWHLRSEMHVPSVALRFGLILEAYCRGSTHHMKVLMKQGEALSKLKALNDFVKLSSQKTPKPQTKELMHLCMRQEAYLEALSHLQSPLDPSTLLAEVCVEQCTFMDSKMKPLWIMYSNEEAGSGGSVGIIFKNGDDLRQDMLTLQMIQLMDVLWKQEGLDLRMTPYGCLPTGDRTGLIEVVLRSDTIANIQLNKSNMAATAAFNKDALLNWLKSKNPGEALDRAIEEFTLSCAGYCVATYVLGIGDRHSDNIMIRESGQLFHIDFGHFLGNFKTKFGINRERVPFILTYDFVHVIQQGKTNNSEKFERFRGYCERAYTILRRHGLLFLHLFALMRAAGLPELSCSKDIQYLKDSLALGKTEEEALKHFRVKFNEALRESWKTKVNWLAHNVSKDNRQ

[2] = biological target: Phosphatidylinositol 4,5-bisphosphate 3-kinase catalytic subunit alpha isoform (Homo sapiens, UniProt P42336); assay: Inhibition of human PI3Kalpha using phosphatidyl inositol as substrate after 3 hrs by Kinase-Glo Plus reagent-based luminescence assay
Phosphatidylinositol 4,5-bisphosphate 3-kinase catalytic subunit alpha isoform, sequence (P42336 whole entry, canonical isoform): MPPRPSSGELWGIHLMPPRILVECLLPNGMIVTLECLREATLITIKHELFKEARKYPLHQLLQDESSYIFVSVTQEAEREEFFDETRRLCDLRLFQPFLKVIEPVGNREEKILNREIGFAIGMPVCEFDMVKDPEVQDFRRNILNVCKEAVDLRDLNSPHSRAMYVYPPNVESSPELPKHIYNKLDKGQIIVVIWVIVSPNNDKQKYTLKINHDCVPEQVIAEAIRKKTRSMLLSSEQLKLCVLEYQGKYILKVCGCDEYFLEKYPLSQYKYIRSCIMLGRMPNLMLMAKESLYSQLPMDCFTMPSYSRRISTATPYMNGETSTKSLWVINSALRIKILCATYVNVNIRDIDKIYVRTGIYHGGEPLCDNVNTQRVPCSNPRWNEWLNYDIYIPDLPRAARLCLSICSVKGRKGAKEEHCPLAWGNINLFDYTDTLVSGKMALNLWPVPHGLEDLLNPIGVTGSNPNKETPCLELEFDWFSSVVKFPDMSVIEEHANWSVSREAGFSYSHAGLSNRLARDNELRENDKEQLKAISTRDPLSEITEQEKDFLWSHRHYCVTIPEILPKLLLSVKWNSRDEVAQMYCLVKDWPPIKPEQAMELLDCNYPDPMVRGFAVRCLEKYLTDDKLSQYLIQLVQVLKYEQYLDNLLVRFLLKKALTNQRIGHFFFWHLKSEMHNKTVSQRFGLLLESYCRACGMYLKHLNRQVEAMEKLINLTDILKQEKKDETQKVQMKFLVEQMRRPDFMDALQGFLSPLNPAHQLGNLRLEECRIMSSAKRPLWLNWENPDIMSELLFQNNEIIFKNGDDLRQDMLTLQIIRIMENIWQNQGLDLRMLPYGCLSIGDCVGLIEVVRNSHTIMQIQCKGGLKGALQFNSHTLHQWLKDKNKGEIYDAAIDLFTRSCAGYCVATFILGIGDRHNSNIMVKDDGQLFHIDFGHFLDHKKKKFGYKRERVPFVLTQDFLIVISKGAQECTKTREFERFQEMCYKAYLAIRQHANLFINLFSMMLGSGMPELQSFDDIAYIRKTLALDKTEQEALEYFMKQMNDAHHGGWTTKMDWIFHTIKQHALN

[3] = biological target: Phosphatidylinositol 4,5-bisphosphate 3-kinase catalytic subunit beta isoform (Homo sapiens, UniProt P42338); assay: Inhibition of recombinant human PI3Kbeta using PIP2 as substrate after 35 to 40 mins by HTRF assay
Phosphatidylinositol 4,5-bisphosphate 3-kinase catalytic subunit beta isoform, sequence (P42338 whole entry, canonical isoform): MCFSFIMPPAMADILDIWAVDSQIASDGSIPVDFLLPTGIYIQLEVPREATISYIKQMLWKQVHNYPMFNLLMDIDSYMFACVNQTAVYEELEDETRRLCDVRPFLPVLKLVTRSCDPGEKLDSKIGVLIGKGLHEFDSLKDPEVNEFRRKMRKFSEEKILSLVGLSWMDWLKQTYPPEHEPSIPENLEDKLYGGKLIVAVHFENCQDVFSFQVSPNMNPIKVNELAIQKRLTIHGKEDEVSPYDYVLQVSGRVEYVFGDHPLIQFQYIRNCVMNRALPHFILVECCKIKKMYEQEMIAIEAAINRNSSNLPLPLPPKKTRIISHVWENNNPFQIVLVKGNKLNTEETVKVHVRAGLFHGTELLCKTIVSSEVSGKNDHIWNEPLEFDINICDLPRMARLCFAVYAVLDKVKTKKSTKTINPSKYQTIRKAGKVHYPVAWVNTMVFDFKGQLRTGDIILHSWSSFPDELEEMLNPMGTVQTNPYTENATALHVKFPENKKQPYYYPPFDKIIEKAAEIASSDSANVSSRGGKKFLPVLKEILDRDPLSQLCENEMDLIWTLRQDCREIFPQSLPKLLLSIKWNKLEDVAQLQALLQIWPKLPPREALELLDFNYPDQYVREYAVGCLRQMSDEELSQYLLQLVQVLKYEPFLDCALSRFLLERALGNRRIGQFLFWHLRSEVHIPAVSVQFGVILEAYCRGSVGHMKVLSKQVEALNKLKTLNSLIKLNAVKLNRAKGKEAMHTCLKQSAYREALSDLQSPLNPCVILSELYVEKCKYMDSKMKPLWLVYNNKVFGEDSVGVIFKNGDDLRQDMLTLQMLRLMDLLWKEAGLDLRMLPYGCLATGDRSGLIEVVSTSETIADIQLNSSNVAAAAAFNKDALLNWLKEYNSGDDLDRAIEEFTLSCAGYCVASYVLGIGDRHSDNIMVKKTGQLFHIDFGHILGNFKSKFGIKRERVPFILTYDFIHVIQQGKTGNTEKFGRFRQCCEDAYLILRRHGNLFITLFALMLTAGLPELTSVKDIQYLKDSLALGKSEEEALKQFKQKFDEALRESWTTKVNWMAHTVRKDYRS

B-cell = assay: Antiproliferative activity against anti-IgM antibody-stimulated BALB/c mouse B cells after 2 days by Alamar Blue reagent-based assay; settings: 48 h
[4] = biological target: Phosphatidylinositol 4,5-bisphosphate 3-kinase catalytic subunit gamma isoform (Homo sapiens, UniProt P48736); assay: Inhibition of recombinant human PI3Kgamma using PIP2 as substrate after 35 to 40 mins by HTRF assay
Phosphatidylinositol 4,5-bisphosphate 3-kinase catalytic subunit gamma isoform, sequence (P48736 whole entry, canonical isoform): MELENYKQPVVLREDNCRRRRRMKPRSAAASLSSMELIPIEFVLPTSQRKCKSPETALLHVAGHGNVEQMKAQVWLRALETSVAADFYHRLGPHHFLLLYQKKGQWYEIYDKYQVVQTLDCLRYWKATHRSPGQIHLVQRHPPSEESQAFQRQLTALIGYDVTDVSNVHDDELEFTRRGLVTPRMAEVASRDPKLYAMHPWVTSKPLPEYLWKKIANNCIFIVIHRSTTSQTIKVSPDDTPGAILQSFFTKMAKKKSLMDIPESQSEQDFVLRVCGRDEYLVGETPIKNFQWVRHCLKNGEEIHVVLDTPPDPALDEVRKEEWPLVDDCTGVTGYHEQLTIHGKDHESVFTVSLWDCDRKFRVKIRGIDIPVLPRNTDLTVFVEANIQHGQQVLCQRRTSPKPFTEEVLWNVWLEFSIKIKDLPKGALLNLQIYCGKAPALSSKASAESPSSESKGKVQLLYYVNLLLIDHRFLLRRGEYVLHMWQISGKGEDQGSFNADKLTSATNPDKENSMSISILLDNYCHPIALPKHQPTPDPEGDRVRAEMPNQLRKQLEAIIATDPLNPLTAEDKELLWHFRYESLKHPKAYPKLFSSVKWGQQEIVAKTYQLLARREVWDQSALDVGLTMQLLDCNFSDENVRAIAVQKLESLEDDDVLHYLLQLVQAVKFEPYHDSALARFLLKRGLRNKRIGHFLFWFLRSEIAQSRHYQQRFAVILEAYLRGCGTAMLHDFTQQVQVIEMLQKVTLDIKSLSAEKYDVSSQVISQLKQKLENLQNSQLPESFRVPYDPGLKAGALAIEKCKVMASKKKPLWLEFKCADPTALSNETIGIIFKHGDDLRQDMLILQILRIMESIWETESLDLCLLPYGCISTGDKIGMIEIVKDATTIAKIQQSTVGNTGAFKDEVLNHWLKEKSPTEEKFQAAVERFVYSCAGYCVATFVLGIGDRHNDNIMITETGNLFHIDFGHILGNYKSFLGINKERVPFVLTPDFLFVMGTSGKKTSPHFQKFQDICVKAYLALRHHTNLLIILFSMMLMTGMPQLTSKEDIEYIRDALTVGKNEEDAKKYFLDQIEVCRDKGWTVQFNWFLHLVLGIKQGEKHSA

[5] = Inhibition of PI3K in rat Rat-1 cells assessed as decrease in AKT 1/2 phosphorylation at ser473 residues after 1 hr by AlphaScreen assay; type: cell-based
[6] = Half life in BALB/c mouse at 1 mg/kg, iv or 3 mg/kg, po by LC-MS/MS analysis; type: ADME, organism-based; settings: in vivo
[7] = AUC (24 hrs) in BALB/c mouse at 3 mg/kg, po by LC-MS/MS analysis; type: ADME, organism-based; design: dose 3 mg/kg, time < 24 hr, route oral; settings: in vivo
[8] = Volume of distribution at steady state in BALB/c mouse at 1 mg/kg, iv or 3 mg/kg, po by LC-MS/MS analysis; type: ADME, organism-based; settings: in vivo, read-out: Vdss
Cytochrome P450 2C19 = Cytochrome P450 2C19 (Homo sapiens, UniProt P33261); assay: Inhibition of CYP2C19 in human liver microsomes at 5 uM using S-mephenytoin as substrate after 20 mins by LC-MS/MS analysis; type: ADME
Cytochrome P450 2C19, sequence (P33261 whole entry): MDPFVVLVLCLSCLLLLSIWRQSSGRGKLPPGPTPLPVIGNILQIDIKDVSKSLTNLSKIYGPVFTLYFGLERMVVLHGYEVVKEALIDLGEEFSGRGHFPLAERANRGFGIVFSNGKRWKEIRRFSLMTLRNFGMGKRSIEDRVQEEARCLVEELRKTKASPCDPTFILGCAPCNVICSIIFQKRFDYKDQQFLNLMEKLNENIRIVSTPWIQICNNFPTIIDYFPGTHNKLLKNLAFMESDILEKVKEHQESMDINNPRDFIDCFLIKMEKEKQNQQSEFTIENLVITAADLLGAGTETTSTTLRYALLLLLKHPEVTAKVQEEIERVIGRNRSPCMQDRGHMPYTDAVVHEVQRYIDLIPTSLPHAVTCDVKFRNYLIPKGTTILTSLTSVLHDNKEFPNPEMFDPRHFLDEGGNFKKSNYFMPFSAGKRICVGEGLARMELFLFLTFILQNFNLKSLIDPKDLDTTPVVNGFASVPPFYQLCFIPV

Mus musculus [9] = assay: Inhibition of TNP-Ficoll induced antibody production in po dosed BALB/c mouse administered twice daily measured on day 4 by ELISA; type: functional, organism-based
[10] = Total clearance in BALB/c mouse at 1 mg/kg, iv or 3 mg/kg, po by LC-MS/MS analysis; type: ADME, organism-based; settings: in vivo
Cytochrome P450 3A4 = Cytochrome P450 3A4 (Homo sapiens, UniProt P08684); assay: Inhibition of CYP3A4 in human liver microsomes at 5 uM using midazolam as substrate after 20 mins by LC-MS/MS analysis; type: ADME
Cytochrome P450 3A4, sequence (P08684 whole entry): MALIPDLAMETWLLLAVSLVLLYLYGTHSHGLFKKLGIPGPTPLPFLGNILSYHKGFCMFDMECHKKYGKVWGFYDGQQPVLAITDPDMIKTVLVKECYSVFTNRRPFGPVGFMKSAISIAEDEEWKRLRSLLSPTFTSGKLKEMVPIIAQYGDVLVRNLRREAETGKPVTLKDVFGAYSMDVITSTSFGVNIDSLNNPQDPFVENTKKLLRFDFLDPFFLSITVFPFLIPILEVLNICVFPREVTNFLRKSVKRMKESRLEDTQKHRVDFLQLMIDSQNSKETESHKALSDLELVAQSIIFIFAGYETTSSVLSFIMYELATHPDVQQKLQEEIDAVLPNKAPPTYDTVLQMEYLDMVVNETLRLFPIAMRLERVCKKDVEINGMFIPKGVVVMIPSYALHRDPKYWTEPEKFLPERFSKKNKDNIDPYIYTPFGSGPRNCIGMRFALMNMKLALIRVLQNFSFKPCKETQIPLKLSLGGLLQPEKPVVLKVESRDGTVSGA

Cytochrome P450 1A2 = biological target: T2, Cytochrome P450 1A2 (Homo sapiens, UniProt P05177); assay: Inhibition of CYP1A2 in human liver microsomes at 5 uM using phenacetin as substrate after 20 mins by LC-MS/MS analysis; type: ADME
T2 sequence (P05177 whole entry): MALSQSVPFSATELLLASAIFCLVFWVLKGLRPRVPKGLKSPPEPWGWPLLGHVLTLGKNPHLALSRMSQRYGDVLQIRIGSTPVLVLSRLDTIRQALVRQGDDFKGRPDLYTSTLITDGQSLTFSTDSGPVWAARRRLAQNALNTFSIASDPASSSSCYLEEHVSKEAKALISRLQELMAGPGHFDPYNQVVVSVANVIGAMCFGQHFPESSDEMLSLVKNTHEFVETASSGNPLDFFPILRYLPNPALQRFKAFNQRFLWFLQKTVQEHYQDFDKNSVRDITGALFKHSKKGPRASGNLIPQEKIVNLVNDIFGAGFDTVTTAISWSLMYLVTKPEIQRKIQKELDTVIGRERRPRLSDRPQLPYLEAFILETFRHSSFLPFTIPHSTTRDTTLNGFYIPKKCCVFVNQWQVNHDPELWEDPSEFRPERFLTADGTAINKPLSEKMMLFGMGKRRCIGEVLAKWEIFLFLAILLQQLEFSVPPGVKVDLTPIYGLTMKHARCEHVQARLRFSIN

Mus musculus [11] = assay: Inhibition of TNP-Ficoll induced antibody production in BALB/c mouse at 2 mg/kg, po qd measured on day 4 by ELISA; type: functional, organism-based
[12] = Unbound fraction in mouse plasma at 2 uM incubated for 6 hrs by LC-MS/MS analysis; type: ADME, cell-free
[13] = Tmax in BALB/c mouse at 1 mg/kg, iv or 3 mg/kg, po by LC-MS/MS analysis; type: ADME, organism-based; settings: in vivo
[14] = Aqueous solubility of compound at pH 6.8 Japanese Pharmacopoeia 2nd fluid for disintegration test at 130 uM after 20 hrs by liquid chromatography method; type: physicochemical
Cytochrome P450 2C8 = biological target: T3, Cytochrome P450 2C8 (Homo sapiens, UniProt P10632); assay: Inhibition of CYP2C8 in human liver microsomes at 5 uM using amodiaquine as substrate after 20 mins by LC-MS/MS analysis; type: ADME
T3 sequence (P10632 whole entry): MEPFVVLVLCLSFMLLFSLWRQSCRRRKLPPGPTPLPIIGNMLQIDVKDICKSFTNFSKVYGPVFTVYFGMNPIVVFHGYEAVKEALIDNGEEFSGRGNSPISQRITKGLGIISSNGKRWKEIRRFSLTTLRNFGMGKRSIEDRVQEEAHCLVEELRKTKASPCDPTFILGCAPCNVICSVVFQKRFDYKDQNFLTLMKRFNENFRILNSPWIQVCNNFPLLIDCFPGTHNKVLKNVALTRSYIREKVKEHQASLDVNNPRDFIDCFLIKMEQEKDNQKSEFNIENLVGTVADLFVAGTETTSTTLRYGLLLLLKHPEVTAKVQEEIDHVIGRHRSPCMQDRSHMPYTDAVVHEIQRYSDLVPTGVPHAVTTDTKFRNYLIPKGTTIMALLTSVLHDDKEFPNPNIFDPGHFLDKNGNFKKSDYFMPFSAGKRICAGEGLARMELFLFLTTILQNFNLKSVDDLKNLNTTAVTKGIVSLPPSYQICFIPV

[15] = Permeability of the compound at 50 uM after 2 hrs by PAMPA; type: ADME; settings: read-out: permeability
[16] = Cmax in BALB/c mouse at 1 mg/kg, iv or 3 mg/kg, po by LC-MS/MS analysis; type: ADME, organism-based; settings: in vivo
Cytochrome P450 2C9 = Cytochrome P450 2C9 (Homo sapiens, UniProt P11712); assay: Inhibition of CYP2C9 in human liver microsomes at 5 uM using diclofenac as substrate after 20 mins by LC-MS/MS analysis; type: ADME
Cytochrome P450 2D6 = Cytochrome P450 2D6 (Homo sapiens, UniProt P10635); assay: Inhibition of CYP2D6 in human liver microsomes at 5 uM using dextromethorphan as substrate after 20 mins by LC-MS/MS analysis; type: ADME
Cytochrome P450 2D6, sequence (P10635 whole entry): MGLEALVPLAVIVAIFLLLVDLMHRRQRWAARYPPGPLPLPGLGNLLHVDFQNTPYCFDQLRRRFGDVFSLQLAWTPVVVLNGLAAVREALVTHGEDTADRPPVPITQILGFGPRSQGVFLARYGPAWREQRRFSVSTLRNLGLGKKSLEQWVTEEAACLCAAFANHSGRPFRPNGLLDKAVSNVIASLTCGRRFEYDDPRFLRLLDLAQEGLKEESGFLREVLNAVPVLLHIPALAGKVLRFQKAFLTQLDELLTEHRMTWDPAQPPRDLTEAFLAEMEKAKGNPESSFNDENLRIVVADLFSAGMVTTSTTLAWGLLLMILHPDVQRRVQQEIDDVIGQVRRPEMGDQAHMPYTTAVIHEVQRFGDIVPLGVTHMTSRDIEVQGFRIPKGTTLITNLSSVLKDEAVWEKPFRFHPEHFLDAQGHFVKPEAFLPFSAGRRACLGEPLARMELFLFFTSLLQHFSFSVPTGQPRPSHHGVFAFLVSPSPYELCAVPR

[17] = Intrinsic clearance in CD1 mouse liver microsomes at 0.2 uM up to 45 mins in presence of NADPH by LC-MS/MS analysis; type: ADME, Microsome; settings: read-out: CLH
[18] = Oral bioavailability in BALB/c mouse at 3 mg/kg by LC-MS/MS analysis; type: ADME, organism-based; settings: in vivo

SMILES: CCOC(=O)c1cccc(Nc2ncnc3c2CN(c2cnc(OC)c(C)c2)CC3)c1
IC50 [1]: 120 nM

SMILES: COc1ncc(N2CCc3ncnc(O[C@H]4CCN(C(=O)C5CCOCC5)C4)c3C2)cc1C
IC50 [5]: 153 nM
IC50 (B-cell): 24 nM
half-life [6]: 0.67 h

SMILES: COc1ncc(N2CCc3ncnc(-c4ccnc(NC5CCN(C)CC5)c4)c3C2)cc1C
AUC at 24 h [7]: 2210 ng·h/mL
Vd [8]: 7.17 L/kg
inhibition (INH) (Cytochrome P450 2C19): Not Active
inhibition (Mus musculus [9]): Dose-dependent effect
clearance [10]: 21.9 mL/min/kg
inhibition (INH) (Cytochrome P450 3A4): Not Active
inhibition (INH) (Cytochrome P450 1A2): Not Active
inhibition (Mus musculus [11]): Active
IC50 [2]: > 10000 nM
fraction unbound at 6 h, 2 µM [12]: 0.3
Tmax [13]: 6 h
solubility at 20 h, 130 µM [14]: > 100 µM
inhibition (INH) (Cytochrome P450 2C8): Not Active
IC50 [1]: 7 nM
IC50 [3]: > 10000 nM
IC50 (B-cell): 3.2 nM
Papp at 2 h, 50 µM [15]: 9.3 ×10⁻⁶ cm/s
IC50 [4]: > 10000 nM
Cmax [16]: 160 ng/mL
inhibition (INH) (Cytochrome P450 2C9): Not Active
inhibition (INH) (Cytochrome P450 2D6): Not Active
CLint scaled at 0.2 µM [17]: 81 mL/min/kg
bioavailability [18]: 97%
half-life [6]: 4 h

SMILES: COc1ncc(N2CCc3ncnc(Nc4cccc(C)c4)c3C2)cc1C
IC50 [1]: 220 nM

SMILES: COc1ncc(N2CCc3ncnc(-c4ccc(NC5CCOCC5)nc4)c3C2)cc1C
IC50 [1]: 150 nM

More lines, in order of falling IC50 [1], values ahead:

IC50 [2]: 4900 nM
IC50 [1]: 110 nM
SMILES: COc1ncc(N2CCc3ncnc(-c4cnn(CC5CCOCC5)c4)c3C2)cc1C

IC50 [1]: 87 nM
SMILES: COc1ncc(N2CCc3ncnc(-c4ccnc(NCc5ccccc5)c4)c3C2)cc1C

IC50 [1]: 49 nM
SMILES: COc1ncc(N2CCc3ncnc(Nc4cccc(C(=O)NC5CCOCC5)c4)c3C2)cc1C

IC50 [1]: 47 nM
SMILES: COc1ncc(N2CCc3ncnc(Nc4cccc(C(=O)N5CCOCC5)c4)c3C2)cc1C

IC50 [2]: 7500 nM
IC50 [1]: 28 nM
IC50 [3]: 8900 nM
SMILES: COc1ncc(N2CCc3ncnc(-c4ccnc(NCC5CCOCC5)c4)c3C2)cc1C
IC50 (B-cell): 17 nM

IC50 [2]: 5800 nM
IC50 [1]: 11 nM
IC50 [3]: 5400 nM
IC50 [4]: > 10000 nM
SMILES: COc1ncc(N2CCc3ncnc(-c4ccnc(NC5CCOCC5)c4)c3C2)cc1C
IC50 (B-cell): 7.1 nM
